Data reported in patent publication US20260274861A1, “FUSED RING COMPOUND, PREPARATION METHOD THEREFOR AND MEDICINAL APPLICATION THEREOF” (JIANGSU HENGRUI PHARMACEUTICALS CO., LTD., priority 2022, published 2026).

Experiments:
[1] = system: ERK phosphorylation in AGS cells; experiment: Inhibition of ERK phosphorylation in AGS cells (HTRF method); assay type: cell-based; conditions: Homo sapiens, 1 h incubation
Procedure: In the experiment, the inhibitory effects of the compounds of the present disclosure on the KRAS target were evaluated by assessing the inhibitory effects of the compounds on ERK phosphorylation in cells and based on IC50 values.
AGS cells were cultured in an RPMI1640 (Hyclone, SH30809.01) complete culture medium containing 10% fetal bovine serum. On the first day of the experiment, the AGS cells were seeded into a 96-well plate with a complete culture medium at a density of 40,000 cells/well, with each well containing 190 μL of a cell suspension. The plate was incubated overnight in a 37° C., 5% CO2 cell incubator.
The next day, the test compounds, serially diluted in a complete culture medium, were added at 10 μL/well. The final concentrations of the compounds were 9 concentration points obtained by 5-fold serial dilution from 10 μM. A blank control containing 0.5% DMSO was set. The plate was incubated in a 37° C., 5% CO2 cell incubator for 1 h. After the incubation, the 96-well cell culture plate was taken out, and the culture medium was removed using a pipette. The plate was washed once by adding 200 μL of PBS (Shanghai BasalMedia Technologies Co., Ltd., B320) to each well. The PBS was removed using a pipette, and 50 μL of a lysis buffer (Cisbio, 64KL1FDF) containing a blocking reagent (Cisbio, 64KB1AAC) was added to each well. The plate was shaken on a shaker at room temperature for 40 min for lysis. After lysis, the lysate was pipetted for good uniformity. […]
On the third day, the fluorescence values at an excitation wavelength of 337 nm and emission wavelengths of 665 nm and 620 nm were obtained using a multi-mode microplate reader (PerkinElmer, EnVision).
The ratio of the fluorescence signal at 665 nm to the fluorescence signal at 620 nm was calculated for phosphorylated ERK1/2 and total ERK1/2 for the compounds at various concentrations, and IC50 values for the inhibitory activity of the compounds were calculated using Graphpad Prism software based on the concentrations of the compounds and the phosphorylated ERK1/2 ratios corrected using the total ERK1/2 ratios.

AGS cells = experiment: Inhibition of 3D proliferation of AGS cells (CellTiter-Glo 3D); assay type: cell-based; conditions: Homo sapiens, 120 h, 5 days
Procedure: (§1) The inhibitory effects of the compounds of the present disclosure on the KRAS target were evaluated by assessing the inhibitory effects of the compounds of the present disclosure on the 3D proliferation of GP2d and AGS cells.
(§2) AGS cells were cultured in a complete culture medium, namely an RPM11640 medium (Hyclone, SH30809.01) containing 10% fetal bovine serum (Corning, 35-076-CV). On the first day of the experiment, the AGS cells were seeded into a 96-well low-adsorption plate (Corning, CLS7007-24EA) with a complete culture medium at a density of 1000 cells/well, with each well containing 90 μL of a cell suspension. The plate was centrifuged at 2000 rpm for 5 min at room temperature and then incubated overnight in a 37° C., 5% CO2 cell incubator.
(§3) The next day, the test compounds, serially diluted in a complete culture medium, were added at 10 μL/well. The final concentrations of the compounds for GP2d cells were 9 concentration points obtained by 5-fold serial dilution from 1 μM, and the final concentrations of the compounds for AGS cells were 9 concentration points obtained by 5-fold serial dilution from […]. A blank control containing 0.5% DMSO was set for both types of cells. The plates were incubated in a 37° C., 5% CO2 cell incubator for 5 days. On the seventh day, the 96-well cell culture plates were taken out, and 50 μL of the CellTiter-Glo® 3D Cell Viability Assay reagent (Promega, G^9682) was added to each well. The plates were shaken at room temperature in the dark for 25 min. The contents in the wells were pipetted for good uniformity, and 100 μL of the mixture was transferred from each well to a white impermeable 96-well plate (PerkinElmer, 6005290). The luminescence signal values were obtained using a multi-mode microplate reader (PerkinElmer, EnVision2105).

GP2d cells = experiment: Inhibition of 3D proliferation of GP2d cells (CellTiter-Glo 3D); assay type: cell-based; conditions: 120 h, 5 days
Procedure: as §1
as §2, with “GP2d” for “AGS”, “a DMEM/high glucose culture” for “an RPM11640”, “SH30243.01)” for “SH30809.01)”
as §3

AsPC-1 cells = experiment: Inhibition of 3D proliferation of AsPC-1 cells (CellTiter-Glo 3D); assay type: cell-based; conditions: Homo sapiens, ASPC1, 120 h, 5 days
Procedure: On the first day of the experiment, well-grown AsPC-1 cells with 70%-80% confluency were digested and resuspended in an RPMI 1640 culture medium (Hyclone, SH30809.01) containing 10% FBS, and the cell density was adjusted to the desired level. The cell suspension was added to a U-shaped low-adsorption 96-well plate (Corning, CLS7007-24EA) at 90 μL/well, with a cell density of 1500 cells/well. The cell plate was centrifuged at 2500 rpm for 5 min and then incubated overnight in a 37° C., 5% CO2 incubator. The next day, 20 mM test compounds dissolved in DMSO were diluted to an initial concentration of 2 mM and then serially diluted 5-fold, and a total of 9 concentration points were obtained. Control wells were set using DMSO. The serially diluted compounds were then further diluted 20-fold with a culture medium. The test compounds, diluted with the culture medium, were added to the cell plate at 10 μL/well, with the final concentrations of the compounds being 9 concentration points obtained by 5-fold serial dilution from an initial concentration of 10 μM. Cell wells containing 0.5% DMSO were set as vehicle control wells, and wells containing only the culture medium and 0.5% DMSO were set as blank control wells. A duplicate well was set for each concentration of the compounds and the control wells, with the final concentration of DMSO in each well being 0.5%. The cell plate was centrifuged at 2500 rpm for 3 min and then incubated in a 37° C., 5% CO2 incubator for 5 days. On the seventh day, the 96-well cell culture plate was taken out, and 50 μL of the CellTiter-Glo® Luminescent 3D Cell Viability Assay reagent (Promega, G^9683) was added to each well. The plates were shaken at room temperature in the dark for 25 min. The contents in the wells were pipetted up and down for good uniformity, and then 100 μL of the mixture was transferred from each well to a white impermeable OptiPlate™-96-well plate (PerkinElmer, 6005290). The luminescence signal values were obtained using a multi-mode microplate reader (PerkinElmer, EnVision2105).
The inhibition rate was calculated using the formula: inhibition rate=(luminescence valuevehicle control well−luminescence valuetest compound)/(luminescence valuevehicle control well−luminescence valueblank control well)×100%. Curves were plotted using GraphPad Prism software based on the various concentrations of the compounds and the corresponding inhibition rates, and IC50 values for the compounds were calculated.

[2] = Pharmacokinetic evaluation in balb/c nude mice after intragastric administration; assay type: in vivo; conditions: female, mouse, po, i.g., 40.0 mg/kg, plasma; for Vd/F: read-out: Apparent distribution volume Vz/F; for AUC(0-t): read-out: Area under curve AUC0-t; for CL/F: read-out: Clearance rate CL/F; for half-life: read-out: Half-life T½ (converted); for Cmax: read-out: Plasma concentration Cmax
Procedure: Balb/c nude mice were used as test animals. After intragastric (i.g.) administration of example compounds to balb/c nude mice, the plasma concentrations at different time points were determined by the LC/MS/MS method. The pharmacokinetic behavior of the compounds of the present disclosure in balb/c nude mice was studied, and their pharmacokinetic profiles were evaluated.
Eighteen female balb/c nude mice, provided by Vital River Laboratory Animal Technology Co., Ltd. with production license SCXK (Zhejiang) 2019-0001, were evenly divided into 2 groups.
A certain amount of a test compound was weighed out, and 5% DMF+45% PG+50% (10% HS15-pH 7.4 buffer)+400 mpk SNAC was added to prepare a 4 mg/mL colorless clear solution.
The dose administered was 40.0 mg/kg, and the volume was 10 mL/kg.
0.1-mL blood samples were collected from the orbit before administration and 0.25 h, 0.5 h, 1.0 h, 2.0 h, 4.0 h, 6.0 h, 8.0 h, 11.0 h, and 24.0 h after administration. The blood samples were placed into EDTA-K2 anticoagulation test tubes and centrifuged at 10,000 rpm for 1 min (4° C.), and plasma was separated within 1 h and stored at −20° C. before analysis. The procedure starting from the blood collection to the centrifugation was performed under ice-bath conditions.
After administration of different concentrations of the test compounds, the plasma concentration of the test compounds in balb/c nude mice was determined: A 25-μL sample of the balb/c nude mouse plasma of each time point after administration was taken, and 200 μL of acetonitrile containing an internal standard (for compound 37, the internal standard was 100 ng/mL verapamil; for compound 39, the internal standard was 100 ng/mL diclofenac) was added. The mixture was vortexed for 5 min and centrifuged at 3700 rpm for 20 min, and the supernatant was mixed with water (1:1). 0.5-2 μL of the supernatant was taken and analyzed by LC/MS/MS. 4. Pharmacokinetic parameters

Row | Compound | IC50 [1] [nM] | IC50 (AGS cells) [nM] | IC50 (GP2d cells) [nM] | IC50 (AsPC-1 cells) [nM] | Vd/F [2] [L/kg] | AUC(0-t) [2] [ng·h/mL] | CL/F [2] [mL/min/kg] | half-life [2] [h] | Cmax [2] [ng/mL]
1 | CCc1c(F)ccc2cc(O)cc(-c3nc4c5c(nc(OCC6(CN7CCOCC7)CC6)nc5c3F)N3C[C@H]5CC[C@H](N5)[C@H]3CO4)c12 [Example 1, 5-Ethyl-6-fluoro-4-((5aS,6S,9R)-1-fluoro-12-((1-(morpholinomethyl)cyclopropyl)methoxy)-5a,6,7,8,9,10-hexahydro-5H-4-oxa-3,10a,11,13,14-pentaaza-6,9-methanonaphtho[1,8-ab]heptalen-2-yl)naphthalen-2-ol] | 0.96 | 16.7 | 5.2 |  |  |  |  |  | 
2 | CCc1c(F)ccc2cc(O)cc(-c3nc4c5c(nc(OCC6(CN7C[C@@H]8C[C@H]7CO8)CC6)nc5c3F)N3C[C@H]5CC[C@H](N5)[C@H]3CO4)c12 [Example 2, 4-((5aS,6S,9R)-12-((1-(((15,4S)-2-Oxa-5-azabicyclo[2.2.1]heptan-5-yl)methyl)cyclopropyl)methoxy)-1-fluoro-5a,6,7,8,9,10-hexahydro-5H-4-oxa-3,10a,11,13,14-pentaaza-6,9-methanonaphtho[1,8-ab]heptalen-2-yl)-5-ethyl-6-fluoronaphthalen-2-ol] | 1.5 |  |  |  |  |  |  |  | 
3 | CCc1c(F)ccc2cc(O)cc(-c3nc4c5c(nc(OCC6(CN7C[C@H]8C[C@@H]7CO8)CC6)nc5c3F)N3C[C@H]5CC[C@H](N5)[C@H]3CO4)c12 [Example 3, 4-((5aS,6S,9R)-12-((1-(((1R,4R)-2-Oxa-5-azabicyclo[2.2.1]heptan-5-yl)methyl)cyclopropyl)methoxy)-1-fluoro-5a,6,7,8,9,10-hexahydro-5H-4-oxa-3,10a,11,13,14-pentaaza-6,9-methanonaphtho[1,8-ab]heptalen-2-yl)-5-ethyl-6-fluoronaphthalen-2-ol] | 1.2 |  |  |  |  |  |  |  | 
4 | C[C@@H]1Oc2nc(-c3ccc(F)c4sc(N)c(C#N)c34)c(F)c3nc(OCC4(CN5CCC(=CF)CC5)CC4)nc(c23)N2C[C@H]3CC[C@H](N3)[C@@H]12 [Example 37, 2-Amino-7-fluoro-4-((5S,5aS,6S,9R)-1-fluoro-12-((1-((4-(fluoromethylene)piperidin-1-yl)methyl)cyclopropyl)methoxy)-5-methyl-5a,6,7,8,9,10-hexahydro-5H-4-oxa-3,10a,11,13,14-pentaaza-6,9-methanonaphtho[1,8-ab]heptalen-2-yl)benzo[b]thiophene-3-carbonitrile] |  | 4.7 | 0.4 | 2.4 | 78 | 5260 | 113 | 7.95 | 699
5 | C[C@@H]1Oc2nc(-c3cc(N)cc(Cl)c3C(F)(F)F)c(F)c3nc(OCC4(CN5CCC(=C(F)F)CC5)CC4)nc(c23)N2C[C@H]3CC[C@H](N3)[C@@H]12 [Example 39, 3-Chloro-5-((5S,5aS,6S,9R)-12-((1-((4-(difluoromethylene)piperidin-1-yl)methyl)cyclopropyl)methoxy)-1-fluoro-5-methyl-5a,6,7,8,9,10-hexahydro-5H-4-oxa-3,10a,11,13,14-pentaaza-6,9-methanonaphtho[1,8-ab]heptalen-2-yl)-4-(trifluoromethyl)aniline] |  | 6.7 | 0.17 | 2.6 | 64.2 | 7210 | 73.7 | 10.1 | 578
